Here are results for 3 compounds from patent EP2676962A1, “Derivatives of 1-aminoalkylphosphonate diaryl esters, method of 1-aminoalkylphosphonate diaryl ester derivatives preparation and their application” (priority 2012, dated 2013).

Like-named read-outs stand apart in the source and are kept apart here. Some results are limits rather than exact numbers.

Holding throughout (type): biochemical
The target of test [1] is T1, human neutrophil elastase (HNE) (Homo sapiens, UniProt P08246).
T1 sequence (P08246 30-267): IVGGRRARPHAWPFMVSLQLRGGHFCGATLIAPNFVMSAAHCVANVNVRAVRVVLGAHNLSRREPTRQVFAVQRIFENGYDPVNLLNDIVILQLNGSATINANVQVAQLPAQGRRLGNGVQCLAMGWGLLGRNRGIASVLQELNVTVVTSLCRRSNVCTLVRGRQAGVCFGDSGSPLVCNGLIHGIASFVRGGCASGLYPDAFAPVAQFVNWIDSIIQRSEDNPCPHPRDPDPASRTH
Briefly: Inhibitory activity toward human neutrophil elastase, fluorogenic substrate, microplate reader. The protocol:
(§1) The biological activity of peptidyl derivatives of phosphonic analogs of valine, alanine, phenylalanine, 4-guanidinephenylglycine, leucine, and 1-aminobutyric acid, containing the N-terminal biotin residue were tested for their ability to inhibit proteolytic activity of selected serine proteases, and the control cysteine proteases. All tests were performed using a microplate reader. As enzyme substrates fluorescent peptides were used. The method to measure the activity of the compounds obtained are described below for each of the enzymes tested: human neutrophil elastase (HNE), porcine pancreatic elastase (PPE), subtilisin (Sub), cathepsin G (CatG), proteinase 3 (PR3), chymotrypsin (ChTry) trypsin (Try), papain (Pap) and cathepsin L (CatL). Measurement of the inhibitory activity was performed at different inhibitor concentrations ranging from 12.5 nM to 2000nm.
Measurement of inhibitory activity of compounds toward human neutrophil elastase (HNE).
The inhibitory activity assay is performed at 37°C in 0,01M HEPES, 0,5M NaCl, 0,03% Triton X-100 buffer, pH 7,5, within 10 min after initial pre-incubation of the enzyme with inhibitor tested at 37°C for 10 min. The enzyme concentration is 0,0025U/ml. Substrate used Me-Suc-Ala-Ala-Pro-Val-AFC at 25µM. Measurement is taken at an excitation wavelength of 400nm and 505nm emission.
(§2) The IC50 value is the concentration of inhibitor required to inhibit half of the enzyme activity after 10 minutes incubation.

Test [2] concerns the target porcine pancreatic elastase (PPE) (Sus scrofa, UniProt P00772). Description: Inhibitory activity toward porcine pancreatic elastase, fluorogenic substrate, microplate reader. The protocol:
as §1
Measurement of inhibitory activity of compounds toward porcine pancreatic elastase (PPE).
The inhibitory activity assay is performed at 37°C in 0,01M Tris-HCl, 0,05% Triton X-100 buffer, pH 8,5, within 10 min after initial pre-incubation of the enzyme with inhibitor tested at 37°C for 10 min. The enzyme concentration is 60nM. Substrate used Me-Suc-Ala-Ala-Pro-Val-AMC at 100µM. Measurement is taken at an excitation wavelength of 350nm and 460nm emission.
as §2

The target of a further test is T2, proteinase 3 (PR3) (Homo sapiens, UniProt P24158).
T2 sequence (P24158 28-248): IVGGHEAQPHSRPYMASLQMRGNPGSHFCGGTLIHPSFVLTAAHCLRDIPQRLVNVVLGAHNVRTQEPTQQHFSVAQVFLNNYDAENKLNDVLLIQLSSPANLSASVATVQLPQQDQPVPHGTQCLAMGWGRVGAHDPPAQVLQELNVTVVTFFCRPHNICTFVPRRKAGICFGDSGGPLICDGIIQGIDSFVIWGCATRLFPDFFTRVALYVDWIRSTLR
Briefly: Inhibitory activity toward proteinase 3, fluorogenic substrate, microplate reader. The protocol: as §1
Measurement of inhibitory activity of compounds toward proteinase 3(PR3).
The inhibitory activity assay is performed at 37°C in 0,1M Tric-HCl, 0,5M NaCl buffer, pH 7,5, within 10 min after initial pre-incubation of the enzyme with inhibitor tested at 37°C for 10 min. The enzyme concentration is 17nM. Substrate used Abz-Tyr-Tyr-Abu-Anb-NH2 at 30µM. Measurement is taken at an excitation wavelength of 325nm and 400nm emission.
as §2

The next test concerns the target T3, cathepsin G (CatG) (Homo sapiens, UniProt P08311).
T3 sequence (P08311 21-244): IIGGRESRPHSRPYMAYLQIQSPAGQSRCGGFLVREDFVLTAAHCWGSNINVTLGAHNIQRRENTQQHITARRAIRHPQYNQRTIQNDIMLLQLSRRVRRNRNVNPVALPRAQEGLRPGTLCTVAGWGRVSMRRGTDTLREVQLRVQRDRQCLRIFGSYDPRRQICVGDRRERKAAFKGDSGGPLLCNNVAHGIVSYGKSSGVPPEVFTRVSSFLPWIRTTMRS
Briefly: Inhibitory activity toward cathepsin G, fluorogenic substrate, microplate reader. As for the experimental part:
as §1
Measurement of inhibitory activity of compounds toward cathepsin G (CatG).
The inhibitory activity assay is performed at 37°C in 0,1M Tric-HCl, 0,5M NaCl buffer, pH 7,5, within 10 min after initial pre-incubation of the enzyme with inhibitor tested at 37°C for 10 min. The enzyme concentration is 100nM. Substrate used MCA-Phe-Val-Thr-Gnf-Ser-Trp-Anb-NH2 at 2.5µM. Measurement is taken at an excitation wavelength of 325nm and 400nm emission.
as §2

Test [3] has as its target T4, subtilisin (Sub) (Bacillus licheniformis, UniProt P00780). Briefly: Inhibitory activity toward subtilisin, fluorogenic substrate, microplate reader. As for the experimental part: as §1
Measurement of inhibitory activity of compounds toward subtilisin (Sub).
The inhibitory activity assay is performed at 37°C in 0,05M Tris-HCl, 1M NaCl, 0,01% Triton X-100 buffer, pH 7,5, within 10 min after initial pre-incubation of the enzyme with inhibitor tested at 37°C for 10 min. The enzyme concentration is 5nM. Substrate used Me-Suc-Ala-Ala-Pro-Phe-AMC at 5µM. Measurement is taken at an excitation wavelength of 350nm and 460nm emission.
as §2

In test [4] the target is T4, subtilisin (Sub). The test is described as above. Particulars: 10 min, pH 7.5, read-out: Sub Kobs/[I].
In a further test the target is chymotrypsin (ChTry) (Bos taurus, UniProt P00766). Description: Inhibitory activity toward chymotrypsin, fluorogenic substrate, microplate reader. The note with it: 10 min pre-incubation at 37°C, pH 7,5, Suc-Ala-Ala-Pro-Phe-AMC 5µM; NI = brak inhibicji (no inhibition). The protocol: as §1
Measurement of inhibitory activity of compounds toward […] (ChyTry).
The inhibitory activity assay is performed at 37°C in 0,1M HEPES, 0,5M NaCl buffer, pH 7,5, within 10 min after initial pre-incubation of the enzyme with inhibitor tested at 37°C for 10 min. The enzyme concentration is 3nM. Substrate used Suc-Ala-Ala-Pro-Phe-AMC at 5µM. Measurement is taken at an excitation wavelength of 350nm and 460nm emission.
as §2

Another test has as its target T5, trypsin (Try) (Bos taurus, UniProt P00760).
T5 sequence (P00760 24-246): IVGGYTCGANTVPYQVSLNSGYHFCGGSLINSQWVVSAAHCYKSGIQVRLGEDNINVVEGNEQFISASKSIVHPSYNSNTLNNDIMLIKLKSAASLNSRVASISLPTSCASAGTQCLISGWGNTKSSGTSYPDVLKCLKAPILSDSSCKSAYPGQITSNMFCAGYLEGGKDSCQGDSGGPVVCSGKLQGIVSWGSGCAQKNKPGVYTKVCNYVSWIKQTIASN
Description: Inhibitory activity toward trypsin, fluorogenic substrate, microplate reader. Particulars: 10 min pre-incubation at 37°C, pH 7,5, Cbz-Arg-AFC 100µM; NI = brak inhibicji (no inhibition). The protocol: as §1
Measurement of inhibitory activity of compounds toward trypsin (Try).
The inhibitory activity assay is performed at 37°C in 0,1M HEPES, 0,5M NaCl, 0,03% Triton X-100 buffer, pH 7,5, within 10 min after initial pre-incubation of the enzyme with inhibitor tested at 37°C for 10 min. The enzyme concentration is 25nM. Substrate used Cbz-Arg-AFC at 100µM. Measurement is taken at an excitation wavelength of 400nm and 505nm emission.
as §2

Setting [5] is: read-out: PR3 IC50, 10 min pre-incubation at 37°C, pH 7,5, Abz-Tyr-Tyr-Abu-Anb-NH2 30µM, NI = brak inhibicji (no inhibition).
Where [6] appears, read: 10 min pre-incubation at 37°C, pH 8,5, Me-Suc-Ala-Ala-Pro-Val-AMC 100µM, NI = brak inhibicji (no inhibition).
Setting [7] is: 10 min pre-incubation at 37°C, pH 7,5, MCA-Phe-Val-Thr-Gnf-Ser-Trp-Anb-NH2 2.5µM, NI = brak inhibicji (no inhibition).

porcine pancreatic elastase (PPE), sequence (P00772 27-266): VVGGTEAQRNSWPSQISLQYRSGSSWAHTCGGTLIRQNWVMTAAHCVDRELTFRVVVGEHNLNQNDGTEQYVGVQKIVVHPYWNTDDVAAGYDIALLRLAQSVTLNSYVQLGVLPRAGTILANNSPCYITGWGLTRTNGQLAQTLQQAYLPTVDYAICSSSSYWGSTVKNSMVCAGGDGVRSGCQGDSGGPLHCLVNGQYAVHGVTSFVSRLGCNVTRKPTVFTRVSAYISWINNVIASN
T4 sequence (P00780 106-379): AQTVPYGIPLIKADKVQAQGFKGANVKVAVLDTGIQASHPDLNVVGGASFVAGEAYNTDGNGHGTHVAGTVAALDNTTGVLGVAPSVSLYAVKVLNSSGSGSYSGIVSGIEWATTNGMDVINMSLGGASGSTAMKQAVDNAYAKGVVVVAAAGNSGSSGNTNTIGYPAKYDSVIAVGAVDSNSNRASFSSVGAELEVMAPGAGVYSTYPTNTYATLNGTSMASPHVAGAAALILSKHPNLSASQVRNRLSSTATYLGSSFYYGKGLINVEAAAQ

Broadly, the IC50 is the concentration at which inhibition is half-maximal. Consider `CC(C)CC(NC(=O)C1CCCN1C(=O)C(NC(=O)CCCCC1SCC2NC(=O)NC21)C(C)C)P(=O)(Oc1ccccc1)Oc1ccccc1` (stereo not drawn) [Compound 7, diphenyl (3-methyl-1-(1-(3-methyl-2-(5-(2-oxohexahydro-1H-thieno[3,4-d]imidazol-4-yl)pentanamido)butanoyl)pyrrolidine-2-carboxamido)butyl)phosphonate], for which the IC50 was over 5000 nM in test [1] (read-out: HNE IC50, 10 min pre-incubation at 37°C, pH 7,5, Me-Suc-Ala-Ala-Pro-Val-AFC 25µM, NI = brak inhibicji (no inhibition)); over 5000 nM in test [2] (read-out: PPE IC50, 10 min pre-incubation at 37°C, pH 8,5, Me-Suc-Ala-Ala-Pro-Val-AMC 100µM, NI = brak inhibicji (no inhibition)); over 5000 nM on proteinase 3 (PR3) (setting [5]); over 5000 nM on cathepsin G (CatG) (read-out: Cat G IC50, 10 min pre-incubation at 37°C, pH 7,5, MCA-Phe-Val-Thr-Gnf-Ser-Trp-Anb-NH2 2.5µM, NI = brak inhibicji (no inhibition)); 76.5 ± 1.65 nM at subtilisin (Sub) [3]. Also, the kinact/KI on subtilisin (Sub) [4] came out at 15000 M⁻¹ s⁻¹.
`COC(=O)c1ccc(OP(=O)(Oc2ccc(C(=O)OC)cc2)C(CC(C)C)NC(=O)C2CCCN2C(=O)C(NC(=O)CCCCC2SCC3NC(=O)NC32)C(C)C)cc1` (stereo not drawn) [Compound 9, dimethyl 4,4'-(((3-methyl-1-(1-(3-methyl-2-(5-(2-oxohexahydro-1H-thieno[3,4-d]imidazol-4-yl)pentanamido)butanoyl)pyrrolidine-2-carboxamido)butyl)phosphoryl)bis(oxy))dibenzoate]: the half-inhibitory concentration (IC50) in test [1] is 5.61 ± 0.02 nM; in test [2], over 5000 nM; against proteinase 3 (PR3) it was 59.5 ± 8 nM; against cathepsin G (CatG) it was 720 ± 60 nM; against subtilisin (Sub) [3], 21.2 ± 1.2 nM. In addition, in test [2] (setting [6]), the “PPE Kobs/[I]” value was under 200 M^-1S^-1. Further, the “PR3 Kobs/[I]” value on proteinase 3 (PR3) (10 min pre-incubation at 37°C, pH 7,5, Abz-Tyr-Tyr-Abu-Anb-NH2 30µM, NI = brak inhibicji (no inhibition)) was 3.9*10^4 M^-1S^-1. Besides, at cathepsin G (CatG) (setting [7]), the “Cat G Kobs/[I]” value was 1.6*10^3 M^-1S^-1. On chymotrypsin (ChTry), the “ChyTr Kobs/[I]” value is on record as 5.2*10^4 M^-1S^-1. Further, at subtilisin (Sub) [3] (10 min pre-incubation at 37°C, pH 7,5, Me-Suc-Ala-Ala-Pro-Phe-AMC 5µM, NI = brak inhibicji (no inhibition)), the “Sub Kobs/[I]” value is recorded as 5.4*10^4 M^-1S^-1. Besides, the “Try Kobs/[I]” value on trypsin (Try) is recorded as 4.4*10^4 M^-1S^-1.
Take `CSc1ccc(OP(=O)(Oc2ccc(SC)cc2)C(CC(C)C)NC(=O)C2CCCN2C(=O)C(NC(=O)CCCCC2SCC3NC(=O)NC32)C(C)C)cc1` (stereo not drawn) [Compound 12, bis(4-(methylthio)phenyl) (3-methyl-1-(1-(3-methyl-2-(5-(2-oxohexahydro-1H-thieno[3,4-d]imidazol-4-yl)pentanamido)butanoyl)pyrrolidine-2-carboxamido)butyl)phosphonate]: the IC50 in test [1] was 66.5 ± 6.5 nM; in test [2], 289 ± 10 nM; on proteinase 3 (PR3) (setting [5]), over 5000 nM; at cathepsin G (CatG), 436 ± 22 nM; on subtilisin (Sub) [3] (read-out: Sub IC50, 10 min pre-incubation at 37°C, pH 7,5, Me-Suc-Ala-Ala-Pro-Phe-AMC 5µM, NI = brak inhibicji (no inhibition)) it was over 5000 nM. Also, the “HNE Kobs/[I]” value in test [1] (10 min pre-incubation at 37°C, pH 7,5, Me-Suc-Ala-Ala-Pro-Val-AFC 25µM, NI = brak inhibicji (no inhibition)) is 1.7*10^4 M^-1S^-1. Besides, in test [2] (setting [6]), the “PPE Kobs/[I]” value is 4*10^3 M^-1S^-1. Also, the “Cat G Kobs/[I]” value at cathepsin G (CatG) (setting [7]) is listed as 2.6*10^3 M^-1S^-1. Moreover, the “ChyTr Kobs/[I]” value on chymotrypsin (ChTry) was 4.5*10^4 M^-1S^-1. Further, the “Try Kobs/[I]” value on trypsin (Try) is recorded as 1.9*10^3 M^-1S^-1.
